The subject of test [1] is ERα Y537S mutant-expressing MCF7 cells. The experiment in a line: Inhibition of proliferation of ERα mutant-expressing MCF7 cells. Conditions: Homo sapiens, 144 h, read-out: IC50, inhibitory effect on the proliferation of ERα mutant-expressing MCF7 cells. Format: cell-based. The source says: The mutant estrogen receptor α (ERα) Y537S of human ERα protein was obtained by site-directed mutagenesis in a two-primer PCR manner using the cDNA of wild-type ESR1 gene (Accession No. NM000125) as a template. The sequences of the primers used in the mutation are as follows (the underlined nucleotides are the sites of mutation): Y537S: F-AAGAACGTGGTGCCCCTCTCTGACCTGCTGCTGGAGATG (SEQ ID NO: 1); R-CATCTCCAGCAGCAGGTCAGAGAGGGGCACCACGTTCTT (SEQ ID NO: 2). The cDNA of the mutant ESR1 was cloned into the lentiviral vector of interest pCDH-CMV-MCS-EF1-Puro. The lentiviral plasmid bearing the mutant ESR1 gene sequence and the lentiviral packaging plasmid were then transfected into HEK-293T cells (ATCC, CRL-3216) by using Lipofectamine 3000 Transfection Reagent (ThermoFisher Scientific, Cat #L3000075). […]
The ERα mutant-expressing MCF7 cells were cultured in an MEM (GE Healthcare, SH30024.01) complete medium containing 10% fetal bovine serum. […] The plate was let stand at room temperature for 10 min, and the luminescence signal value was read using a multilabel microplate reader (PerkinElmer, VICTOR 3). The IC50 value for the inhibitory activity of the compound was calculated according to the compound concentration and the luminescence signal value and is shown in Table 3.

The target in a further test is ER (estrogen receptor) (Homo sapiens (Human), UniProt P03372). Put plainly: Inhibition of binding of E to ER (MCF-7/ERE-luciferase reporter). Format: cell-based. The conditions noted are these: MCF-7/ERE-luciferase cells, 0.1 nM estradiol, 24 h; read-out: IC50, inhibitory effect on the binding of E to ER. As to the method:
The compound of the present disclosure can inhibit the binding of E (estrogen) to ER (estrogen receptor), thereby blocking the binding of the complex of E and ER to ERE (estrogen response element), and consequently the expression of downstream luciferase proteins. The inhibitory effect of the compound of the present disclosure on the binding of E to ER was tested by using the following method.
An ERE was cloned upstream of the luciferase gene, and MCF-7/ERE-luciferase monoclonal cells were selected by transfection of MCF-7 (TCHu74, National Collection of Authenticated Cell Cultures). The MCF-7/ERE-luciferase cells were seeded into a 96-well plate with an MEM (hyclone, SH30024.01B) medium containing 10% charcoal stripped FBS (Moregate, FBSF), 1% sodium pyruvate (sigma, S8636), 1% non-essential amino acids (sigma, M7145) and 500 μg/mL G418 at a density of 30,000 cells/well and cultured at 37° C. with 5% CO2. […] The plate was let stand at room temperature in the dark for 10-15 min, and the chemiluminescence signal value was determined.
The inhibitory effect of the compound of the present disclosure on the binding of E to ER was determined through the above experiment. The chemiluminescence signal value was analyzed against the compound concentration (in log form) using Graphpad Prism, and the IC50 value of the compound was obtained.

Sequence of ER (estrogen receptor) (P03372 whole entry): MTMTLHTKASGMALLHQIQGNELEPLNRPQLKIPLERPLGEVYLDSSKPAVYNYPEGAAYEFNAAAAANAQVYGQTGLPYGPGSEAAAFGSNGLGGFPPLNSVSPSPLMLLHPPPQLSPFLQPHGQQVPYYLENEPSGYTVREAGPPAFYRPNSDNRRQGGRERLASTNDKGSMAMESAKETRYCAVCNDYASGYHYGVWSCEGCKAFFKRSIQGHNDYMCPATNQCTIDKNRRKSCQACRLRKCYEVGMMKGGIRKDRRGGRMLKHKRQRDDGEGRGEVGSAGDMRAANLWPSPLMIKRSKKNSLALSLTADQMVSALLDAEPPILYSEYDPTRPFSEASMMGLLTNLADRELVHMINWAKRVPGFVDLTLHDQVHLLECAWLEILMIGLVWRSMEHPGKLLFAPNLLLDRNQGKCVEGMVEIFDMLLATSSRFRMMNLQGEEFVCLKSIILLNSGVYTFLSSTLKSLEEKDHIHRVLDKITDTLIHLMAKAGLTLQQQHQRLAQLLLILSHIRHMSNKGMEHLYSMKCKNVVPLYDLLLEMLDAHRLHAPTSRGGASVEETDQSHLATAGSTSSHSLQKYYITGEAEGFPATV

On to `[2H]C1([2H])Oc2cc3c(cc2O1)[C@@H](c1ccc(NC2CN(CCCF)C2)cn1)N(CC(F)(F)CO)[C@H](C)C3` [Compound 1, 2,2-Difluoro-3-((5S,7R)-5-(5-((1-(3-fluoropropyl)azetidin-3-yl)amino)pyridin-2-yl)-7-methyl-7,8-dihydro-[1,3]dioxolo[4,5-g]isoquinolin-6(5H)-yl-2,2-d2)propan-1-ol], for which the IC50 in test [1] turned out to be 1.36 nM; at ER (estrogen receptor), 0.69 nM.

Source of the values: US20240374581A1, “SALT TYPES OF TRICYCLIC TETRAHYDRO ISOQUINOLINE DERIVATIVE” (JIANGSU HENGRUI PHARMACEUTICALS CO., LTD., priority 2021, published 2024).
